From patent publication US20230146395A1, “Substituted Pyrimidines and Uses Thereof” (Verge Analytics, Inc., priority 2020, published 2023) come the findings set out here.

By IC50 is commonly meant the concentration needed to halve the response being measured.

Structures can show the parent of a compound that is named as a salt.

The test deals with T1, Full length human recombinant PIKFYVE (Homo sapiens, UniProt Q9Y2I7).
T1 construct: Full length human recombinant PIKFYVE; purchased Carna Biosciences (Kobe, Japan); host or cells: baculovirus expression system
T1 sequence (Q9Y2I7 whole entry): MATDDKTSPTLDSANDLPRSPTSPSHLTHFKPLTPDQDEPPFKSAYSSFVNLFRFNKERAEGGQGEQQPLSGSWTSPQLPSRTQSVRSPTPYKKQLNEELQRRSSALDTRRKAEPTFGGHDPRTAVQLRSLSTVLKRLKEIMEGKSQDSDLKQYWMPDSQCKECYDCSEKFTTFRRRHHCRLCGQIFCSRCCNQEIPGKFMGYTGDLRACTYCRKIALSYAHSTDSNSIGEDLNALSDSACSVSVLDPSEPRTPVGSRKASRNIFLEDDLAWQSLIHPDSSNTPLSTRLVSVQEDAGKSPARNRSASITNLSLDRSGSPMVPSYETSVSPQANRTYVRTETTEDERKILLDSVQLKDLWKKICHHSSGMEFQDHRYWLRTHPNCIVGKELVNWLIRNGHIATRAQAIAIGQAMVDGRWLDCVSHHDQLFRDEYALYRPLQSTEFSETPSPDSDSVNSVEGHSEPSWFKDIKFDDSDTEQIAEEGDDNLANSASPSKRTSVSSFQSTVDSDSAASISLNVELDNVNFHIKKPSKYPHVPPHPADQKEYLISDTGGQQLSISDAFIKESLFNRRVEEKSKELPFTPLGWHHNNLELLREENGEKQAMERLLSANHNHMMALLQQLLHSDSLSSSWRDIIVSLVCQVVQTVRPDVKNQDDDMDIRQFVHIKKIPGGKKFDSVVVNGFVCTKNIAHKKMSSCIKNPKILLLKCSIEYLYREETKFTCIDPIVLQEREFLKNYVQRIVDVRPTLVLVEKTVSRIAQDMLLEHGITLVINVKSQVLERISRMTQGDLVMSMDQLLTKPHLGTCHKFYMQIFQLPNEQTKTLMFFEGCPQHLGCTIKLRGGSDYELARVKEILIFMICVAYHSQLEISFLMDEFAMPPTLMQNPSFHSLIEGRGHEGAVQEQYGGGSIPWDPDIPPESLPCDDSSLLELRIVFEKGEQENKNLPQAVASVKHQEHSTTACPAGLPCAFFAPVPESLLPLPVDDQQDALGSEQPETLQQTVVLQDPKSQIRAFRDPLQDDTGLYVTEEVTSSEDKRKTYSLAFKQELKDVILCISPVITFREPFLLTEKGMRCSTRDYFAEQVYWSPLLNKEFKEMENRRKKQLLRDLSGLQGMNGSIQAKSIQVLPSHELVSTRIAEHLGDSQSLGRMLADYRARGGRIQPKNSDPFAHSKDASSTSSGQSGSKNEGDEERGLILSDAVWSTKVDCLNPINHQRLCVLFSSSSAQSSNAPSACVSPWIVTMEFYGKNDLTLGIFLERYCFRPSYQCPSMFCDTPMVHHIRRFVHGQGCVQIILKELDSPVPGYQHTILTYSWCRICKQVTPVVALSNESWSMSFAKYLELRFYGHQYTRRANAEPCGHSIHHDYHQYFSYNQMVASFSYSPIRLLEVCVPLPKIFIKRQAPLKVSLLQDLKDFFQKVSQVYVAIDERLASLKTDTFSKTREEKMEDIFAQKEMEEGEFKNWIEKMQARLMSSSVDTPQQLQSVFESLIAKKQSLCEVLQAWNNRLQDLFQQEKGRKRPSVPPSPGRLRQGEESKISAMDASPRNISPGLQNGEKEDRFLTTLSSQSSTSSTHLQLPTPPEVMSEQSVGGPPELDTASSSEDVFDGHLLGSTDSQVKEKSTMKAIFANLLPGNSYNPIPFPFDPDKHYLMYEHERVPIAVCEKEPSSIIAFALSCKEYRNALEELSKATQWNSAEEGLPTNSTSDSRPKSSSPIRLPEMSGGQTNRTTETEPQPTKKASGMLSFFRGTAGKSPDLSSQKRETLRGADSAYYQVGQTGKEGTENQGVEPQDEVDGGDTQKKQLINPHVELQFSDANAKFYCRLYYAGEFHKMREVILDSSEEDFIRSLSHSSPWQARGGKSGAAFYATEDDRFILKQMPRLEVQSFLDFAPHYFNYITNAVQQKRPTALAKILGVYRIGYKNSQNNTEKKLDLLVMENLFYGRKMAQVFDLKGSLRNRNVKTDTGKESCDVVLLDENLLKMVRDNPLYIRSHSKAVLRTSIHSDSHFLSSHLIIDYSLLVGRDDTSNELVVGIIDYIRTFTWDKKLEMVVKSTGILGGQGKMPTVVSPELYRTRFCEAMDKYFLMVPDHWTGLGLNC
Put plainly: Inhibition of PIKfyve (microfluidic electrophoresis kinase assay, PI3P/PS substrate). To be noted: 12 concentrations. It counts as biochemical. The method, then:
Full length human recombinant PIKFYVE expressed in baculovirus expression system as N-terminal GST-fusion protein (265 kDa) was obtained from Carna Biosciences (Kobe, Japan). The kinase substrate was prepared by mixing and sonicating fluorescently-labeled phosphatidylinositol 3-phosphate (PI3P) with phospho-L-serine (PS) at a 1:10 ratio in 50 mM HEPES buffer pH 7.5.
The kinase reactions were assembled in 384-well plates (Greiner) in a total volume of […] as follows. Kinase protein was pre-diluted in an assay buffer comprising 25 mM HEPES, pH 7.5, 1 mM DTT, 2.5 mM MgCl2, and 2.5 mM MnCl2, and 0.005% Triton X-100, and dispensed into a 384-well plate (10 μL per well). Test compounds were serially pre-diluted in DMSO and added to the protein samples by acoustic dispensing (Labcyte Echo). The concentration of DMSO was equalized to 1% in all samples. All test compounds were tested at 12 concentrations. Apilimod was used as a reference compound and was tested in identical manner in each assay plate. Control samples (0%-inhibition, in the absence of inhibitor, DMSO only) and 100%-inhibition (in the absence of enzyme) were assembled in replicates of four and were used to calculate %-inhibition in the presence of compounds. The reactions were initiated by addition of 10 μL of 2×PI3P/PS substrate supplemented with ATP. The final concentration of enzyme was 2 nM, the final concentration of ATP was […], and the final concentration of PI3P/PS substrate was 1 μM (PI3P). The kinase reactions were allowed to proceed for 3 h at room temperature. Following incubation, the reactions were quenched by addition of […] of termination buffer (100 mM HEPES, pH 7.5, 0.01% Triton X-100, 20 mM EDTA). Terminated plates were analyzed on a microfluidic electrophoresis instrument (Caliper LabChip® 3000, Caliper Life Sciences/Perkin Elmer). The change in the relative fluorescence intensity of the PI(3)P substrate and PI(3,5)P product peaks was measured. The activity in each test sample was determined as the product to sum ratio (PSR): P/(S+P), where P is the peak height of the product, and S is the peak height of the substrate. Percent inhibition (Pinh) was determined using the following equation:
Pinh=(PSR0% inh−PSRcompound)/(PSR0% inh−PSR100% inh)*100
in which PSRcompound is the product/sum ratio in the presence of compound, PSR0% inh is the product/sum ratio in the absence of compound, and the PSR100% inh is the product/sum ratio in the absence of the enzyme.
In the case of `O=C(NCC1COC1)c1cc2nc(-n3ccc(-c4ccccc4)n3)nc(N3CCOCC3)c2o1` [Compound 159, 4-morpholino-N-(oxetan-3-ylmethyl)-2-(3-phenylpyrazol-1-yl)furo[3,2-d]pyrimidine-6-carboxamide], the half-maximal inhibitory concentration (IC50) was determined as 0.943 µM. The figure for `COc1cccc(-c2ccn(-c3nc(N4CCOCC4)c4oc(C(=O)NC5CCOCC5)cc4n3)n2)c1` [Compound 221, 2-[3-(3-methoxyphenyl)pyrazol-1-yl]-4-morpholino-N-tetrahydropyran-4-yl-furo[3,2-d]pyrimidine-6-carboxamide] is 0.0034 µM; for `c1cncc(-c2cc3nc(Nc4cc(-c5ccncc5)n[nH]4)nc(N4CCOCC4)c3o2)c1` [Compound 31, 4-morpholino-6-(3-pyridyl)-N-[5-(4-pyridyl)-1H-pyrazol-3-yl]furo[3,2-d]pyrimidin-2-amine, hydrogen chloride] it is 0.369 µM.

Take `Brc1cccc(-c2ccn(-c3nc(N4CCOCC4)c4oc(-c5ccccn5)cc4n3)n2)c1` [Compound 186, 2-[3-(3-bromophenyl)pyrazol-1-yl]-4-morpholino-6-(2-pyridyl)furo[3,2-d]pyrimidine]: the IC50 was determined as 0.006 µM. The figure for `Cc1cc(-c2cc(Nc3nc(N4CCOCC4)c4oc(-c5ccncc5)cc4n3)[nH]n2)ccn1` [Compound 22, N-(3-(2-methylpyridin-4-yl)-1H-pyrazol-5-yl)-4-morpholino-6-(pyridin-4-yl)furo[3,2-d]pyrimidin-2-amine hydrochloride] is 0.027 µM; for `CNC(=O)c1cc2nc(Nc3cc(CC4CC4)n[nH]3)nc(N3CCOCC3)c2o1` [Compound 79, 2-((5-(cyclopropylmethyl)-1H-pyrazol-3-yl)amino)-N-methyl-4-morpholinofuro[3,2-d]pyrimidine-6-carboxamide, hydrogen chloride] it is ≥ 10 µM. For the compound `Cn1ccc(-c2cc3nc(-n4ccc(-c5ccccc5)n4)nc(N4CCOCC4)c3o2)n1` [Compound 191, 6-(1-methylpyrazol-3-yl)-4-morpholino-2-(3-phenylpyrazol-1-yl)furo[3,2-d]pyrimidine], the IC50 stood at 0.0519 µM. The figure for `Cc1c(-c2ccncc2)oc2c(N3CCOCC3)nc(-n3ccc(-c4ccccc4)n3)nc12` [Compound 181, 7-methyl-4-morpholino-2-(3-phenylpyrazol-1-yl)-6-(4-pyridyl)furo[3,2-d]pyrimidine] is 0.0594 µM; for `CONC(=O)c1cc2nc(-n3ccc(-c4cccc(C)c4)n3)nc(N3CCOCC3)c2o1` [Compound 99, N-methoxy-4-morpholino-2-(3-(m-tolyl)-1H-pyrazol-1-yl)fur[3,2-d]pyrimidine-6-carboxamide] it is 0.0783 µM. The figure for `O=C(NC1CCOC1)c1cc2nc(-n3cc(-c4ccccc4)cn3)nc(N3CCOCC3)c2o1` (centres unmarked) [Compound 172, 4-morpholino-2-(4-phenylpyrazol-1-yl)-N-tetrahydrofuran-3-yl-furo[3,2-d]pyrimidine-6-carboxamide] is 0.0378 µM; for `Cc1cccc(-c2cc(Nc3nc(N4CCOCC4)c4oc(C5CCN(C)CC5)cc4n3)[nH]n2)c1` [Compound 33] it is 0.059 µM. The figure for `Cc1cccc(-c2ccn(-c3nc(N4CCOCC4)c4oc(-c5ncco5)cc4n3)n2)c1` [Compound 218, 4-morpholino-2-[3-(m-tolyl)pyrazol-1-yl]-6-oxazol-2-yl-furo[3,2-d]pyrimidine] is 0.0091 µM; for `c1ccc(-c2cc3nc(Nc4cc(-c5ccncc5)n[nH]4)nc(N4CCOCC4)c3o2)nc1` [Compound 28, 4-morpholino-6-(pyridin-2-yl)-N-(3-(pyridin-4-yl)-1H-pyrazol-5-yl) furo[3,2-d] pyrimidin-2-aminehydrochloride] it is 0.677 µM.

As for `Cc1cccc(-c2cnn(-c3nc(N4CCOCC4)c4oc(-c5cc(C)n(CCN6C(=O)C=CC6=O)n5)cc4n3)c2)c1` [Compound 202, 1-[2-[5-methyl-3-[4-morpholino-2-[4-(m-tolyl)pyrazol-1-yl]furo[3,2-d]pyrimidin-6-yl]pyrazol-1-yl]ethyl]pyrrole-2,5-dione], the IC50 came to 0.0014 µM.
